Test results taken from PMC4526917 (Journal of Experimental Botany, 2015).
Peptide text beside a SMILES is read from it.

Experiments:
F. graminearum conidia = format: cell-based, Fusarium graminearum; details: for fungal germination in Fusarium / conidia that did not germinate at all: 90 µM peptide; for fungal germination in Fusarium: 24 hours in PGM, absorbance at 595 nm, germination above 60% taken as threshold; for conidia that did not germinate at all: microscopy; for concentration giving complete suppression of conidia germination: PGM, 24h
U. maydis spores [1] = format: cell-based, Ustilago maydis
maize pollen tubes = test: Pollen tube burst assay; format: cell-based, Zea mays; details: for maize pollen tube burst: mean ±SD
Description: The assay was applied as described ([Woriedh et al., 2013]). Briefly, freshly collected pollen was immediately distributed onto Petri dishes containing droplets of 10 µL PGM at different pH values. Pollen tubes started to burst or to grow after about 10min. Pollen tubes were subjected to further studies only if germination rates exceeded 80%. After optimization, PGM at pH 5 was applied to all pollen tube assays. A 10 µL solution of the above peptides or acetonitrile as a negative control was added to each droplet of germinated pollen using a Cell-TramH Air pump (Eppendorf) and a glass micropipette. During this assay, droplets were observed using an Eclipse TE2000 inverted microscope (Nikon) equipped with a 1.4 Megapixel digital AxioCam MRm camera (black and white) and AxioVision digital image processing software (Release 4.8).

U. maydis spores [2] = details: for inhibition of germination of Ustilago spores: 24 h, 90 μM
[3] = tested on: F. graminearum conidia and mycelia; format: cell-based, Fusarium graminearum; details: 90 µM peptide, after 6h; microscopy
[4] = tested on: F. graminearum conidia and mycelia; format: cell-based, Fusarium graminearum; details: NBT staining of superoxide; 60 µM peptide (Fig. 6)
U. maydis spores [5] = format: cell-based, Ustilago maydis; remark: listed apart in the source
maize pollen tube = tested on: maize pollen tube; set-up: method as in Amien et al., 2010; details: ref Amien et al., 2010; cited from earlier work

| Molecule | fungal germination in Fusarium (F. graminearum conidia) [%] | conidia that did not germinate at all (F. graminearum conidia) | concentration giving complete suppression of conidia germination (F. graminearum conidia) [µM] | ROS production in U. maydis spores (U. maydis spores [1]) | maize pollen tube burst (maize pollen tubes; peptide concentration not stated at this place (100nM, 250nM and 500nM applied), PGM pH 5, 5min after application) [%] | concentration giving complete suppression of spore germination (U. maydis spores [2]) [µM] | germination of Ustilago spores (U. maydis spores [2]) [%] | spores that did not germinate at all (U. maydis spores [2]) | inhibition of germination of Ustilago spores (U. maydis spores [2]) [%] | effect on developed F. graminearum mycelia (24 hpi) [3] | ROS production in F. graminearum conidia and mycelia [4] | maize pollen tube burst (maize pollen tubes; 500nM peptide in PGM pH 5, measured 5min after application, P < 0.001) [%] | time after application until pollen tubes started to burst (maize pollen tubes; PGM pH 5, in words) | effect on U. maydis spores (U. maydis spores [5]) | effect on maize pollen tube growth behaviour (maize pollen tube) |
| --- | --- | --- | --- | --- | --- | --- | --- | --- | --- | --- | --- | --- | --- | --- | --- |
| CC(C)C[C@H](NC(=O)[C@H](CS)NC(=O)[C@H](CCCNC(=N)N)NC(=O)CNC(=O)CNC(=O)[C@@H](NC(=O)[C@H](Cc1ccc(O)cc1)NC(=O)CNC(=O)[C@H](CCCCN)NC(=O)CNC(=O)[C@H](CCC(=O)O)NC(=O)[C@H](C)NC(=O)[C@H](CCCNC(=N)N)NC(=O)[C@H](CS)NC(=O)CN)[C@@H](C)O)C(=O)O [ES-c] (H-GCRAEGKGYTGGRCL-OH; N-terminus and C-terminus assumed) | 19.1±3.8 | Approximately 80% | 120 | ROS production was also detected | 29.3±4.2 | 120 | 19.1±3.8 | Approximately 80% | 80.9±1.0 | breaking/bursting of cell walls and release of vacuoles | strongly produced ROS | – | – | – | – |
| CC[C@H](C)[C@H](NC(=O)CNC(=O)[C@H](CC(=O)O)NC(=O)[C@H](CC(C)C)NC(=O)[C@@H](NC(=O)[C@@H](NC(=O)[C@@H]1CCCN1C(=O)[C@H](CO)NC(=O)[C@@H](NC(=O)[C@H](CC(C)C)NC(=O)[C@H](CS)NC(=O)[C@@H](N)CCCNC(=N)N)[C@@H](C)CC)[C@@H](C)CC)[C@@H](C)O)C(=O)N[C@@H](CC(C)C)C(=O)N[C@@H](CS)C(=O)N[C@@H](Cc1ccc(O)cc1)C(=O)O [ES-d] (H-RCLISPITLDGILCY-OH; N-terminus and C-terminus assumed) | 20.6±2.1 | Approximately 80% | 120 | ROS production was also detected | – | 120 | 20.6±2.1 | Approximately 80% | 78.7±1.0 | breaking/bursting of cell walls and release of vacuoles | strongly produced ROS | 82.5±5.2 | within a few seconds | burst of swelling spores and excretion of vacuoles and cell components | – |
| AFP2: anti-fungal protein AFP2 from radish (Raphanus sativus) (QKLCQRPSGTWSGVCGNNNACKNQCIRLEKARHGSCNYVFPAHKCICYFPC; UniProt P30230 30-80, looked up) | – | – | – | – | – | – | – | – | – | – | – | – | – | – | did not affect |
